Results from PMC6271910, “Exploiting Natural Products to Build Metalla-Assemblies: The Anticancer Activity of Embelin-Derived Rh(III) and Ir(III) Metalla-Rectangles” (Molecules, 2014).
Read-outs that look alike come from different tables or passages of the source.

Legend:
[1] = system: DU-145 cells (prostate cancer); assay: MTT assay, DU-145; type: cell-based, human; conditions: averaged over three experiments, read-out: Half maximum inhibitory concentration (IC50), DU-145
Procedure: (§1) To understand the effect of these complexes on the proliferation of cancerous and noncancerous cells, MTT assays were carried out following the protocol reported by Wilson et al.. The noncancerous (HEK-293) and the human cancerous cell lines (DU-145, A-549 and HeLa) were grown according to the supplier’s recommendations. All cell lines were treated for 48 h at different concentrations of complexes (0.25 µM, 0.5 µM, 0.75 µM, 1 µM, 5 µM, 10 µM, 25 µM, 50 µM and 100 µM). After treatment, the number of viable cells was estimated using a MTT assay. […] Cells treated with doxorubicin in the same concentration range were considered as controls.
(§2) The anticancer activity of the complex was determined using the 3-(4,5-dimethylthiazol-2-yl)-2,5-diphenyltetrazolium bromide (MTT) assay. First 1 × 10^4 cells per well were seeded in Dulbecco’s modified Eagle’s medium (DMEM, 100 µL) supplemented with 10% fetal bovine serum in each well of 96-well microculture plates and incubated for 24 h at 37 °C in a CO2 incubator. Complexes were diluted to the desired concentrations in culture medium and added to the wells with respective vehicle control. After 48 h of incubation, MTT (10 µL, 5 mg mL^−1) was added to each well and the plates were further incubated for 4 h. Then the supernatant from each well was carefully removed, formazan crystals were dissolved in DMSO (100 µL) and absorbance at 570 nm was recorded.

[2] = system: HEK-293 (normal human embryonic kidney cells); assay: MTT assay, HEK-293; type: cell-based; conditions: for IC50: 48 h, MTT, noncancerous cells, averaged over three experiments, read-out: Half maximum inhibitory concentration (IC50), HEK-293; for Selectivity for cancerous over noncancerous cells (HEK-293): IC50 on HEK-293 compared with cancer cell lines
Procedure: as §1, §2

[3] = system: HeLa cells (cervical cancer); assay: MTT assay, HeLa; type: cell-based, human; conditions: 48 h, averaged over three experiments, read-out: Half maximum inhibitory concentration (IC50), HeLa
Procedure: as §1, §2

CT DNA [4] = assay: UV-visible spectroscopic titrations with CT DNA; type: binding, calf; conditions: 25 µM complex, KBPES buffer pH 7.0, 25 °C
Description: The mode of the DNA-complex interaction was further studied by UV-visible experiments. The results from these studies will indicate the mode of DNA-complex interaction. The UV-visible spectra of metalla-rectangles 4, 6 and 8, the iridium derivatives, show a prominent absorption band at 210 nm. […] The hyperchromicity of the Soret band of the metalla-rectangles was more evident at 210 nm. A continuous hyperchromicity of the Soret band upon addition of metalla-rectangles 4, 6 and 8 to a CT DNA solution is an indication of electrostatic binding or partial unwinding of the CT DNA [27].
UV-Visible spectroscopic titrations were performed using an ABI Lambda 40 UV/Vis spectrophotometer (Foster City, CA, USA) at 25 °C using 1 cm path length quartz cuvettes. Stock solutions of complex (25 µM) was prepared in DMSO and CT DNA (25 µM) were prepared in KBPES buffer (30 mM Potassium Phosphate with 100 mM KCl, pH 7.0). The quartz cells were thoroughly cleaned with distilled water and followed by nitric acid (~0.1 N) after each experiment. UV-visible absorption titrations were done by adding CT DNA stock solution (25 µM) in KBPES buffer (30 mM Potassium Phosphate with 100 mM KCl, pH 7.0) to the quartz cuvette containing approximately 25 µM complex solutions. Preparation of CT DNA and complex solutions was done on the same day as the experiment. Titrations were performed until the band remained at a fixed wavelength upon successive additions of CT DNA.

[5] = system: A-549 cells (lung cancer); assay: MTT assay, A-549; type: cell-based, human
Procedure: as §1, §2

CT DNA (calf-thymus DNA) = assay: Thermal denaturation study of CT DNA; type: binding; conditions: for ΔTm of CT DNA: incubation 12 h at 37 °C, PE buffer pH 7.4, complex/DNA ratio 1:1, CT DNA alone melts at 59.3 °C
Procedure: The DNA binding affinity of the synthesized complexes was evaluated through thermal denaturation studies with duplex CT DNA using a modified reported procedure. […]

A-549 cells [6] = assay: Apoptosis assay (annexin-V/propidium iodide flow cytometry); type: cell-based, human; conditions: A-549, 500 nM, 48 h; for Early apoptotic (%): control 0.84; for Late apoptotic (%): control 6.18; for Necrotic (%): control 14.61; for Living cells (%): control 78.37; for Total apoptotic cells (%): early + late apoptotic, control 7.02
A-549 cells [7] = assay: Mitochondrial outer membrane permeability assay (MitoTracker Red, confocal microscopy); type: cell-based, human; conditions: A-549, 500 nM
Procedure: The aggregation of mitochondria was reported to occur when cells enter into apoptosis, and accordingly led to the release of cytochrome c into the cytosol, which in turn triggered the cascade pathway to apoptosis. From Figure 6, it was clear that mitochondria were getting bundled with metalla-rectangle 3, indicating the onset of apoptosis in A-549 cells.
Compound [3](CF3SO3)4 (500 nM) with treated and untreated A-549 cells were incubated in a medium containing MitoTracker Red™ (50 nM) for 30 min at culture conditions recommended by the supplier. Cells were washed and fixed with 4% paraformaldehyde for 15 min, and permeabilized with Triton X-100 (0.1%) for each 10 min. The cover glasses after PBS wash were mounted on to the glass slides, sealed with nail polish and observed using laser scanning confocal microscopy (Leica TCS SP5, Heidelberg, Germany). The MitoTracker Red™ was excited using 543 nm laser source and the fluorescence emission signals were collected at 570 nm to 635 nm.

CT DNA [8] = assay: CD spectroscopic study with CT DNA; type: binding, calf; conditions: CT DNA/complex 1:0.5 to 1:1, KBPES buffer pH 7.0, 25 °C
Procedure: Circular dichroism (CD) studies can provide information on the changes in the DNA conformation upon interactions with small molecules. These changes in the DNA topology are giving useful information on the nature of the DNA-complex interactions. […] These bands are characteristic to the profile of the B form of DNA [24].
Circular dichroism (CD) experiments were performed using a Jasco 815 CD spectropolarimeter (Jasco, Tokyo, Japan). CD spectra were recorded from 230 to 300 nm to find the conformational changes in the CT DNA after interaction with the complexes. For each CD experiment, CT DNA (15 × 10^‒6 M) was used initially. Further, for the characterization of complex‒DNA interaction, the CD spectra were recorded in 1:0.5 and 1:1 CT DNA/complex molar ratios. CD titrations were performed in KBPES buffer (30 mM Potassium Phosphate with 100 mM KCl, pH 7.0) at 25 °C. Each spectrum was recorded three times and the average of three scans was taken.

A-549 cells [9] = assay: Cell cycle assay by flow cytometry (propidium iodide); type: cell-based, human; conditions: A-549, 500 nM, 24 h; for Sub G1 (%): control 1.37; for G2/M (%): control 16.37; for S (%): control 17.15; for G0/G1 (%): control 54.62
Procedure: In order to corroborate the results obtained in the MTT assays and to better understand the action of metalla-rectangles 3 and 8 on cells, the effects on the cell cycle inhibition and the interference in cell proliferations using a standard cell cycle assay were studied. The results obtained are presented in (Table 2). On analyzing the results, it was evident that the cell cycle was inhibited at the subG1 phase with both metalla-rectangles.
Flow cytometric analysis (FACS) was performed to evaluate the distribution of the cells in different cell cycle phases. A-549 cells were incubated with metalla-rectangles 3 and 8 at 500 nM concentration for 24 h. Untreated cells were considered as control sample. Untreated and treated cells were harvested, washed with PBS, fixed in ice cold 70% ethanol and stained with propidium iodide (Sigma Aldrich, St. Louis, MO, USA). Cell cycle was performed by using Becton Dickinson FACS Caliber (Franklin Lakes, NJ, USA).

[10] = 48 h, averaged over three experiments, read-out: Half maximum inhibitory concentration (IC50), A-549
[11] = 48 h, read-out: IC50 in A-549 cells

Compound “[(η^5-C5Me5)4Rh4(μ2-1,2-bis(4-pyridyl)ethylene-ĸN)2(μ4-C6HRO4-ĸO)2](CF3SO3)4 [[7](CF3SO3)4]” has an IC50 ([1]; 48 h) of 4980 ± 300 nM, an IC50 [2] of 62100 ± 300 nM and an IC50 [3] of 5750 ± 200 nM. The “Change of the absorption (Soret) band at 210 nm on addition of CT DNA” value (shortened to “Change of the absorption (Soret) band”) (CT DNA [4]) was “same hyperchromicity”, the IC50 [5, 10] was 2010 ± 200 nM and the “ΔTm of CT DNA” value (CT DNA (calf-thymus DNA)) was 8.2 °C.

“[(η^5-C5Me5)4Rh4(μ2-4,4'-bipyridine-ĸN)2(μ4-C6HRO4-ĸO)2](CF3SO3)4 [[5](CF3SO3)4]” gave an IC50 ([1]; 48 h) of 4670 ± 200 nM, an IC50 [2] of 41300 ± 400 nM and an IC50 [3] of 1010 ± 300 nM. The “Change of the absorption (Soret) band” value (CT DNA [4]) was “same hyperchromicity”, the IC50 [5, 10] was 670 ± 100 nM and the “ΔTm of CT DNA” value (CT DNA (calf-thymus DNA)) was 7.3 °C.

Work on “[(η^5-C5Me5)4Ir4(μ2-4,4'-bipyridine-ĸN)2(μ4-C6HRO4-ĸO)2](CF3SO3)4 [[6](CF3SO3)4]” yielded an IC50 ([1]; 48 h) of 2530 ± 200 nM, an IC50 [2] of 40300 ± 400 nM and an IC50 [3] of 1040 ± 300 nM. The “Change of the absorption (Soret) band” value (CT DNA [4]) was “continuous increase of its intensity”, the IC50 [5, 10] was 840 ± 100 nM and the “ΔTm of CT DNA” value (CT DNA (calf-thymus DNA)) was 7.9 °C.

`COc1cccc2c1C(=O)c1c(O)c3c(c(O)c1C2=O)C[C@@](O)(C(=O)CO)C[C@@H]3O[C@H]1C[C@H](N)[C@H](O)[C@H](C)O1` [doxorubicin, reference compound] gave an IC50 ([1]; Homo sapiens, DU-145, 48 h) of 1280 ± 200 nM, an IC50 ([3]; Homo sapiens, HeLa) of 910 ± 200 nM and an IC50 ([5]; Homo sapiens, A549, 48 h, averaged over three experiments, read-out: Half maximum inhibitory concentration (IC50), A-549) of 850 ± 100 nM. For the same compound, the “ΔTm of CT DNA” value (CT DNA (calf-thymus DNA)) was 9.5 °C.

In the case of “[(η^5-C5Me5)4Rh4(μ2-pyrazine-ĸN)2(μ4-C6HRO4-ĸO)2](CF3SO3)4 [[3](CF3SO3)4]”, the IC50 ([1]; 48 h, listed as [3]^4+) is reported as 500 nM, the IC50 ([1]; 48 h) is reported as 540 ± 200 nM and the IC50 [2] is reported as 62000 ± 500 nM. The “Selectivity for cancerous over noncancerous cells (HEK-293)” value [2] was “two orders of magnitude”, the IC50 ([3]; listed as [3]^4+) was 500 nM and the IC50 [3] was 520 ± 200 nM. The “Change of the absorption (Soret) band” value (CT DNA [4]) was “same hyperchromicity”, the “Early apoptotic (%)” value (A-549 cells [6]) was 4.73% and the “Late apoptotic (%)” value (A-549 cells [6]) was 23.30%. For the same compound, the “Necrotic (%)” value (A-549 cells [6]) was 11.57%, the “Living cells (%)” value (A-549 cells [6]) was 60.40% and the “Total apoptotic cells (%)” value (A-549 cells [6]) was 28.03%. For the same compound, the “Total apoptotic cells (%)” value (A-549 cells [6]; listed as 3) was “about 28.03%”, the “Effect on mitochondria distribution (MitoTracker Red)” value (A-549 cells [7]) was “aggregations of mitochondria were observed” and the “Change of the positive CD band of CT DNA (275 nm)” value (CT DNA [8]) was “slight hyperchromicity”. For the same compound, the IC50 [5, 10] was 500 ± 100 nM, the IC50 [5, 11] was about 500 nM and the “Melting temperature of CT DNA in the presence of the compound” value (CT DNA (calf-thymus DNA); CT DNA alone 59.3 °C) was 72.2 °C. For the same compound, the “ΔTm of CT DNA” value (CT DNA (calf-thymus DNA)) was 12.9 °C, the “Sub G1 (%)” value (A-549 cells [9]) was 31.97% and the “G2/M (%)” value (A-549 cells [9]) was 1.35%. For the same compound, the “S (%)” value (A-549 cells [9]) was 2.87% and the “G0/G1 (%)” value (A-549 cells [9]) was 56.29%.

In the case of “[(η^5-C5Me5)4Ir4(μ2-1,2-bis(4-pyridyl)ethylene-ĸN)2(μ4-C6HRO4-ĸO)2](CF3SO3)4 [[8](CF3SO3)4]”, the IC50 ([1]; 48 h) is reported as 720 ± 200 nM, the IC50 [2] is reported as 70800 ± 400 nM and the “Selectivity for cancerous over noncancerous cells (HEK-293)” value [2] is reported as “two orders of magnitude”. For the same compound, the IC50 [3] was 590 ± 200 nM, the “Change of the absorption (Soret) band” value (CT DNA [4]) was “continuous increase of its intensity” and the “Early apoptotic (%)” value (A-549 cells [6]) was 1.58%. For the same compound, the “Late apoptotic (%)” value (A-549 cells [6]) was 13.04%, the “Necrotic (%)” value (A-549 cells [6]) was 22.92% and the “Living cells (%)” value (A-549 cells [6]) was 62.46%. The “Total apoptotic cells (%)” value (A-549 cells [6]) was 14.62%, the “Change of the positive CD band of CT DNA (275 nm)” value (CT DNA [8]) was “higher hyperchromicity” and the IC50 [5, 10] was 670 ± 400 nM. The IC50 [5, 11] was about 670 nM, the “ΔTm of CT DNA” value (CT DNA (calf-thymus DNA)) was 12.7 °C and the “Sub G1 (%)” value (A-549 cells [9]) was 11.98%. The “G2/M (%)” value (A-549 cells [9]) was 3.49%, the “S (%)” value (A-549 cells [9]) was 7.95% and the “G0/G1 (%)” value (A-549 cells [9]) was 66.54%.

Work on “[(η^5-C5Me5)4Ir4(μ2-pyrazine-ĸN)2(μ4-C6HRO4-ĸO)2](CF3SO3)4 [[4](CF3SO3)4]” yielded an IC50 ([1]; 48 h) of 16000 ± 400 nM, an IC50 [2] of 31200 ± 500 nM and an IC50 [3] of 4160 ± 300 nM. The “Change of the absorption (Soret) band” value (CT DNA [4]) was “continuous increase of its intensity”, the IC50 [5, 10] was 3180 ± 200 nM and the “ΔTm of CT DNA” value (CT DNA (calf-thymus DNA)) was 6.8 °C.
